A short description of data set [1]: Pharmacokinetic and biodistribution study in mice bearing H460 xenografts. The class given is in vivo, SCID mice. To be noted: single i.v. dose 2 mg/kg. Here is the method:
SCID mice bearing H460 lung cancer xenografts (˜300 mm^3) were injected in the tail vein with either free drug doxorubicin (FD), liposomal doxorubicin (LD), or targeting (HSP1, HSP2 or HSP4) LD at a single dose of 2 mg/kg. At 1 hr and 24 hr post-injection, blood samples were collected through submaxillary punctures before mice were anaesthetized and sacrificed (three mice in each group). Then the mice were perfused with 50 ml PBS through heart, xenograft tumors and organs (brain, lung, heart, liver, and kidney) were dissected, weighted, and homogenized to calculate amount of doxorubicin in tissues. Total doxorubicin was quantified by measuring fluorescence at λEx/Em=485/590 nm using a spectrofluorometer (SPECTRAMAX® M5, Molecular Devices).

Data set [2] concerns human lung cancer cell lines (H460, H661, H1993, H441, CL1-5, A549, H520, H1688). The data set is described as follows: Flow cytometry surface binding of FITC-conjugated peptides to lung cancer cell lines. The data set is classed as cell-based. The settings on record: 20 μg/mL FITC-conjugated peptide, 4° C., 1 hour; large cell, adeno-, squamous cell and small cell carcinoma lines. Here is the method:
(§1) The lung cancer cell lines or control cells were collected using enzyme-free cell dissociation buffer, and then were incubated with 20 μg/mL FITC-conjugated HSP1, 2, 4 or control peptide at 4° C. for 1 hour. After washing, cells were analyzed by flow cytometer.
A general note: Flow cytometry measures light scatter and fluorescence of single cells or particles in a stream.

The subject of data set [3] is H460 cells. The experiment in a line: Endocytosis assay (confocal microscopy). The class given is cell-based, human. The settings on record: peptide-conjugated LSRB; 4° C. vs 37° C. On the procedure: H460 cells were incubated with HSP1, HSP2, HSP4-LSRB or LSRB for 10 min at 4° C. and 37° C. After being washed with PBS, the cells were fixed by 4% paraformaldehyde, blocked by 1% BSA, and then stained with WGA-ALEXA FLUOR® […] and DAPI for cell membrane and nucleus. All fluorescence images were obtained by confocal microscopy.

In data set [4] the test system is H460 cells. The experiment in a line: In vitro cytotoxicity assay of targeting peptide-conjugated LD (MTT). The class given is cell-based, human. To be noted: for decrease of the half maximal inhibitory concentration (IC50) compared to LD: peptide-conjugated LD at optimal peptide ratio, H460 cells; for reduction in IC50 in vitro: peptide-mediated DDS, summary statement. Here is the method: H460 cells were seeded in 96-well plates (5000 cells/well) in complete culture media and were incubated overnight. Next day, cells were treated with varying concentration (0˜100 μM) of HSP1-LD, HSP2-LD, HSP4-LD or LD at 37° C. for 24 hours; After removal of the excess drug, the cells were washed once with PBS and continued to incubate with fresh culture medium for 48 h at 37° C. The cell viability was measured by adding 50 μl of MTT (Thiazolyl Blue Tetrazolium Bromide; Sigma-Aldrich) to each well of the plate. After 3.5 hours MTT incubation, 150 μl of Dimethyl sulfoxide (DMSO; Mallinckrodt Baker) was added to each well for 10 min, and the absorbance was determined with microplate reader (SPECTRAMAX® M5, Molecular Devices) at 540 nm.

Data set [5] deals with H1993 adenocarcinoma cells. The data set is described as follows: Immunofluorescence staining (IFA) of FITC-labeled peptides. The class given is cell-based, human. To be noted: 10 μg/mL FITC-labeled peptide, fixed H1993 cells. On the procedure: (§2) H460 and H1993 cells were seeded and grown to about 50% confluence on cover slips. After the cells had been fixed with 2% paraformaldehyde, they were incubated with 10 μg/mL FITC-labeled HSP1, 2, 4 or control peptides. Then the slides were counterstained with 4′,6-diamidino-2-phenylindole (DAPI), mounted and examined under a Leica universal fluorescent microscope. The images were merged using the MetaMorph Image Analysis Software.

The test system of data set [6] is H460 large cell carcinoma cells. The description is as above. The data set is classed as cell-based, human. The settings on record: 10 μg/mL FITC-labeled peptide, fixed H460 cells. Here is the method:
as §2

Data set [7] relates to H460 human lung large cell carcinoma xenografts. The data set is described as follows: Ligand-targeted therapy, lung large cell carcinoma xenograft model. The data set is classed as in vivo, SCID mice. The settings on record: large tumor ~500 mm^3; 2 mg/kg/injection i.v. twice a week. On the procedure: Female SCID mice 4-6 weeks of age were injected subcutaneously in the dorsolateral flank with human NSCLC cells. Mice with size-matched tumors (approximately 75 mm^3 for small tumor; 300 or 500 mm^3 for large tumor) were then randomly assigned to different treatment groups, and were injected intravenously with liposomal doxorubicin (LD), liposomal vinorelbine (LV), targeting peptide (HSP1, HSP2 or HSP4)-conjugated LD or LV, free doxorubicin (FD), free vinorelbine (FV) or equivalent volumes of saline. The dosages of drugs and administration time courses were described in figure legends depend on different experiment design. Mouse body weights and tumor sizes were measured twice a week. Tumor volumes were calculated according to this formula: length×(width)^2×0.52. Animal care was carried out in accordance with guidelines of Academia Sinica, Taipei, Taiwan. The protocol was approved by the Committee on the Ethics of Animal Experiments of Academia Sinica.

Data set [8] concerns human normal bronchial epithelial cell (NL20). The data set is described as follows: Flow cytometry surface binding of FITC-conjugated peptides to normal cells. The data set is classed as cell-based. To be noted: 20 μg/mL FITC-conjugated peptide, 4° C., 1 hour. On the procedure: as §1
A further data set has as its system H1993 cells. The experiment in a line: Uptake of targeting peptide-conjugated LSRB. The settings on record: peptide-conjugated liposomal SRB, time course, 37° C. The class given is cell-based, human. On the procedure: (§3) H460 and H1993 cells were grown on a 24-well plate to 90% confluency, and 20, 10, 5, 2.5, 1.25, 0.625 μM HSP1, 2, 4-liposomal sulforhodamine B (LSRB) or LSRB in complete culture medium was added. The cells were incubated at 37° C., at the following time periods: 10, 30 min, 1, 2, 4, 8, 16 and 24 hours. At the indicated time point, cells were washed with PBS, and non-internalized LSRB on the cell surface was removed by adding 0.1 M Glycine, pH 2.8 for 10 min. Cells were then lysed with 200 μl 1% Triton X-100. Uptake of LD at low concentration in H1993 cells was performed using same protocol. For extraction of SRB or doxorubicin, 300 μl IPA (0.75 N HCl in isopropanol) was added to the lysate and shaken for 30 min. After the lysate was centrifuged at 12,000 rpm for 5 min, the amount of uptakes were determined by measuring Excitation/Emission wavelengths of fluorescence at 520/570 nm for SRB and 485/590 nm for doxorubicin using, a spectrofluorometer (SPECTRAMAX® M5, Molecular Devices). The concentration of SRB and doxambicin were calculated by interpolation using a standard curve.

Data set [9] concerns H460 cells. The data set is described as follows: Uptake of targeting peptide-conjugated LSRB. The settings on record: for uptake of LSRB: peptide-conjugated LSRB at high concentration / higher doses; for liposome internalization compared to non-targeting LSRB: peptide-conjugated liposomal SRB, time course, 37° C. The class given is cell-based, human. On the procedure:
as §3

Data set [10] relates to A549 adenocarcinoma orthotopic model. The experiment in a line: Combination therapy in orthotopic lung cancer model. The class given is in vivo, SCID mice. The settings on record: HSP4-mediated combinatorial liposomes.
Method: SCID mice (6-week-old) were anesthetized with isofloruance mixed with oxygen and placed in the right decubitus position. The skin overlying the left chest wall in the mid-axillary line was prepared with alcohol, and the underlying, chest wall and intercostal spaces were visualized. […] After tumor injection, the mice were turned to left decubitus position and observed for 45 to 60 min until fully recovered.
Luciferase-expressing cancer cells were imaged and quantified using IVIS200 system (Xenogen Corporation, Alameda, Calif.) at 10 minutes after i.p. injection of LUCWERIN™ (Caliper Life Sciences) before drug administration each time.

Where no end group is shown, it is not given here.

For the molecule `COc1cccc2c1C(=O)c1c(O)c3c(c(O)c1C2=O)C[C@@](O)(C(=O)CO)C[C@@H]3O[C@H]1C[C@H](N)[C@H](O)[C@H](C)O1` [FD, doxorubicin], in data set [1], the “half-life in plasma compared to liposomal formulations” value is given as “much shorter half-life in plasma”.
With GAMHLPWHMGTL (also: FITC label) [HSP1], the “surface binding of FITC-labeled peptide (FACS)” value in [2] is listed as “prominent binding”; in [8], “not to human normal bronchial epithelial cell”. In addition, in the data set with H460 cells [3], the “binding versus internalization compared to HSP2 and HSP4” value is on record as “stronger ability at binding than internalization”. In addition, the “decrease of the half maximal inhibitory concentration (IC50) compared to LD” value with H460 cells [4] is reported as 12.5 fold. Moreover, the “reduction in IC50 in vitro” value in the data set with H460 cells [4] was “about 10 fold”. In addition, the “binding of FITC-labeled peptide in cell IFA” value (from here on “binding … in cell IFA”) in [5] and in [6] was “can bind to a major group” in each case. Moreover, the “therapeutic efficacy of LD” value in data set [7] is reported as “significantly improved therapeutic efficacy”. The “liposome internalization compared to non-targeting LSRB” value in the data set with H1993 cells and in the data set with H460 cells [9] was “enhanced liposome internalization” each time. Besides, in the data set with H460 cells [9], the “uptake of LSRB” value is “better uptake ability”.
As to “KATEEQLKTVME (control peptide) [reference compound]”, the “binding … in cell IFA” value in data set [5] and in data set [6] was “cannot” each time.
NNPWREMMYIEI [HSP4, NNPWREMMYIEI]: the “adverse effect (body weight loss)” value in data set [10] is recorded as “decreasing body weight loss”.
For the molecule NPWEEQGYRYSM (also: FITC label) [HSP2], the results for the “surface binding of FITC-labeled peptide (FACS)” value in data set [2] and in [8] were “prominent binding” and “not to human normal bronchial epithelial cell”, respectively. In addition, the “decrease of the half maximal inhibitory concentration (IC50) compared to LD” value in the data set with H460 cells [4] is listed as 13 fold. Also, the “reduction in IC50 in vitro” value in the data set on H460 cells [4] is “about 10 fold”. Also, the “binding … in cell IFA” value in [5] and in data set [6] was “can bind to a major group” throughout. For the same molecule, the “therapeutic efficacy of LD” value in data set [7] is reported as “significantly improved therapeutic efficacy”. The “liposome internalization compared to non-targeting LSRB” value in the data set with H1993 cells and in the data set with H460 cells [9] was “enhanced liposome internalization” throughout. Further, the “uptake of LSRB” value in the data set on H460 cells [9] was “no difference from non-targeting LSRB”. In addition, the “intracellular delivery of LSRB” value in the data set on H460 cells [9] (peptide-conjugated LSRB at low LSRB concentrations) is “prominent intracellular delivery”.

For the origin of these results see patent publication US9387257B2, “Lung cancer specific peptides for targeted drug delivery and molecular imaging” (Academia Sinica, priority 2014, dated 2016).
